For seven compounds, TGI and GI50 results are on record in PubChem BioAssay (NCI).

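Method: 48-hour compound exposure of cells in 96-well plates, five concentrations, linear interpolation of endpoints. GI50: concentration for 50% inhibition of growth. TGI: total growth inhibition.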

Experiment in all cases: DTP human tumour cell line panel, 48 h
Assay [1] has as its system SK-MEL-28 melanoma.
Assay [2] concerns U251 CNS.
Assay [3] has as its system SF-539 CNS.
The test system of assay [4] is HCC-2998 colon.
The subject of assay [5] is OVCAR-4 ovarian.
For assay [6], the system named is NCI-H23 lung.
For assay [7], the system named is T-47D breast.
Assay [8] relates to PC-3 prostate.
Assay [9] has as its system MDA-MB-435.
Assay [10] concerns MOLT-4 leukemia.

As a reminder, the TGI is the concentration at which net growth stops. The low end stands for more potent growth arrest, the high end for less potent growth arrest. Usually GI50 stands for the concentration that inhibits growth by half. As to `CCCCCCCCCCCCCCCC(=O)NS(=O)(=O)OC[C@H]1O[C@@H](n2cnc3c(N)ncnc32)[C@H](O)[C@@H]1O`, the TGI in assay [1] is 1.66 µM; in assay [2] it was less than 0.0277 µM; in assay [3] it was 0.359 µM; in [4], less than 0.038 µM; in assay [5], 0.255 µM; in assay [6], 1.25 µM. For the same compound, the TGI was 1.34 µM in assay [7], less than 0.0166 µM in assay [8], 0.551 µM in assay [9] and 8.92 µM in assay [10]. In addition, the 50% growth inhibitory concentration (GI50) was less than 0.0162 µM in assay [2]; 0.118 µM in assay [3]; less than 0.0192 µM in assay [4]; 0.0392 µM in [5]; 0.321 µM in assay [6]; 0.275 µM in [7]. For the same compound, the concentration for 50% growth inhibition (GI50) is 0.21 µM in assay [9] and 0.962 µM in assay [10].
As to `C[n+]1cccc(NC(=O)c2ccc3ccc4ccc(C(=O)Nc5ccc[n+](C)c5)nc4c3n2)c1`, the GI50 in assay [1] was 2.13 µM; in assay [2] it was 2.23 µM; in assay [3], 3.33 µM; in [4], 3.04 µM; in [5], 7.37 µM; in [6], 1.41 µM. Besides, the GI50 in [7] was 0.52 µM; in [8], 6.21 µM; in assay [9], 6.2 µM; in [10], 21.3 µM. Further, the concentration for total growth inhibition (TGI) in [1] is more than 100 µM; in assay [2], more than 100 µM; in assay [3] it was 15.6 µM; in assay [4] it was more than 100 µM; in [5], more than 100 µM; in assay [6] it was more than 45 µM. The concentration for total growth inhibition (TGI) in assay [7], in assay [8], in [9] and in assay [10] was more than 100 µM throughout.
In the case of `Nc1c(C(=O)Nc2cccc(Cl)c2)sc2nc3c(cc12)C(O)CCC3` (stereo not drawn), the GI50 is 3.02 µM in assay [1]; 0.379 µM in assay [2]; 0.275 µM in assay [3]; 2.39 µM in assay [4]; 5.51 µM in assay [5]; 0.711 µM in assay [6]. In addition, the GI50 was 0.463 µM in assay [7], 0.416 µM in assay [8], 0.121 µM in [9] and 0.488 µM in assay [10]. In addition, the TGI in assay [1] was 59 µM; in assay [2], 13.6 µM; in [3], 0.965 µM; in assay [4] it was 25.7 µM; in [5], 40.2 µM; in assay [6] it was more than 100 µM. Besides, the concentration for total growth inhibition (TGI) in assay [7] was 53.2 µM; in [8], 25.2 µM; in [9] it was 0.408 µM; in assay [10], more than 57.7 µM.
Turning to `Cn1c2c(c3ccccc31)CCN1C[C@@H]3CCCC[C@H]3C[C@@H]21`, the GI50 is 6.03 µM in assay [1]; 2.51 µM in assay [2]; 2.87 µM in assay [3]; 2.1 µM in assay [4]; 4.36 µM in assay [5]; 3.55 µM in [6]. For the same compound, the GI50 in assay [7] was 14.1 µM; in assay [8], 3.31 µM; in assay [9], 1.56 µM; in assay [10] it was 5.55 µM. In addition, the TGI was more than 100 µM in [1]; more than 100 µM in assay [2]; more than 30 µM in assay [3]; 5.48 µM in [4]; more than 100 µM in assay [5]; more than 100 µM in assay [6]. The TGI in assay [7] was more than 100 µM; in [8], more than 100 µM; in assay [9], more than 20.6 µM; in [10], more than 100 µM.
In the case of `CCN1CCN(Cc2ccc(Nc3ncc(F)c(-c4cc(F)c5nc(C)n(C(C)C)c5c4)n3)nc2)CC1`, the GI50 is 6.03 µM in assay [1]; 0.317 µM in assay [2]; 7.39 µM in assay [3]; 5.35 µM in assay [4]; 6.49 µM in assay [5]; 3.26 µM in assay [6]. For the same compound, the GI50 is 19.3 µM in assay [7], 0.0527 µM in assay [8], 0.191 µM in assay [9] and 0.156 µM in assay [10]. Also, the total growth inhibition concentration (TGI) was found to be 12.9 µM in assay [1]; 11.6 µM in assay [2]; 15.7 µM in [3]; 11.5 µM in assay [4]; 16.2 µM in [5]; 15.2 µM in [6]. Besides, the TGI amounted to 29 µM in assay [7], 11.1 µM in assay [8], 10.7 µM in [9] and 9.85 µM in [10].
As to `COc1cc(-c2oc3c(OC)c(O)c(OC)c(O)c3c(=O)c2OC)cc(OC)c1OC`, the TGI in assay [1], in assay [2], in assay [3], in [4], in [5] and in [6] was more than 100 µM each time. For the same compound, the concentration for total growth inhibition (TGI) in [7], in assay [8], in assay [9] and in assay [10] was more than 100 µM in each case.
Turning to `Nc1nc2ccc(CNc3ccc(C(=O)NC(CC(=O)O)C(=O)O)cc3)cc2c(=O)[nH]1` (stereo not drawn), the GI50 was more than 96 µM in [1]; 7.49 µM in [2]; 3.3 µM in [3]; 7.39 µM in assay [4]; more than 100 µM in assay [5]; 5.83 µM in assay [6]. Besides, the GI50 is more than 100 µM in [7], 0.655 µM in assay [8], 0.514 µM in assay [9] and 16.3 µM in assay [10]. Further, the TGI in assay [1], in assay [2], in assay [3], in assay [4], in assay [5] and in [6] was more than 100 µM each time. Besides, the TGI in assay [7], in [8], in [9] and in assay [10] was more than 100 µM throughout.
